Results published in patent US20200305481A1, “STEVIOL GLYCOSIDE COMPOSITIONS FOR ORAL INGESTION OR USE” (CARGILL, INCORPORATED, priority 2015, published 2020).
“Also recorded” adds a separate entry of the source.

How the values were obtained:
[1] = Sensory testing of steviol glycoside samples dissolved in water; format: in vivo; details: for Sensory Comments: about 300 ppm sample in reverse osmosis water, 2-3 mL tasted by two to three experienced tasters; for sweetness in water compared with Reb M in water: in reverse osmosis water, experienced tasters
Procedure: Steviol glycoside samples (SG201, SG203, and SG204) were isolated and purified from fermentation broth, purified Reb A and B are of leaf origin, and Reb M is chemically synthesized. All samples were dissolved in reverse osmosis water at the concentrations indicated. Approximately 2-3 milliliters of each solution was tasted and sensory evaluations conducted by two to three experienced tasters.

[2] = cited from earlier work; for taste properties in words: background statements, literature sensory evaluation
[3] = water at room temperature / beverage formulations; cited from earlier work

For `C=C1C[C@@]23CCC4[C@](C)(C(=O)OC5OC(CO)C(O)C(O)C5OC5OC(CO)C(O)C(O)C5O)CCC[C@@]4(C)[C@@H]2CCC1(OC1OC(COC2OC(CO)C(O)C(O)C2O)C(O)C(O)C1OC1OC(CO)C(O)C(O)C1O)C3` (stereo partly drawn) [SG203], which “Sensory Comments” value [1] is on record?
The value was “not sweet, meaty, brothy,; also recorded: strecker, methional”.

What about the “sweetness in water compared with Reb M in water” value [1] of the same molecule?
Its value is “do not exhibit sweetness similar to Reb M”.

Which “taste properties in words” value [2] does the source give for `C=C1C[C@@]23CC[C@H]4[C@@](C)(CCC[C@@]4(C)C(=O)O[C@@H]4O[C@H](CO)[C@@H](O)[C@H](O[C@@H]5O[C@H](CO)[C@@H](O)[C@H](O)[C@H]5O)[C@H]4O[C@@H]4O[C@H](CO)[C@@H](O)[C@H](O)[C@H]4O)[C@@H]2CC[C@]1(O[C@@H]1O[C@H](CO)[C@@H](O)[C@H](O[C@@H]2O[C@H](CO)[C@@H](O)[C@H](O)[C@H]2O)[C@H]1O[C@@H]1O[C@H](CO)[C@@H](O)[C@H](O)[C@H]1O)C3` [Reb M, rebaudioside M] here?
The value was “higher sweetness intensity and is more potent than other steviol glycosides”.

And the “aqueous solubility in words” value [3]?
The value was “poor aqueous solubility and dissolution qualities”.

What about the “Sensory Comments” value [1] of the same molecule?
The value was “good sweetness, almost; also recorded: sucrose-like sensation; also recorded: in mouth”.

Which “taste properties in words” value [2] does the source give for `C=C1C[C@@]23CC[C@H]4[C@@](C)(CCC[C@@]4(C)C(=O)O[C@@H]4O[C@H](CO)[C@@H](O)[C@H](O)[C@H]4O[C@@H]4O[C@H](CO)[C@@H](O)[C@H](O)[C@H]4O)[C@@H]2CC[C@]1(O[C@@H]1O[C@H](CO)[C@@H](O)[C@H](O[C@@H]2O[C@H](CO)[C@@H](O)[C@H](O)[C@H]2O)[C@H]1O[C@@H]1O[C@H](CO)[C@@H](O)[C@H](O)[C@H]1O)C3` [Reb D, rebaudioside D] here?
Its value is “slow onset of sweetness and was very clean”.

What about the “times sweeter than sucrose” value ([2]; relative to sucrose (sugar)) of the same molecule?
The value was 200-220 times.

What about the “aqueous solubility in words” value [3] of the same molecule?
The value was “low solubility in water at room temperature”.

And the “Sensory Comments” value [1]?
Its value is “less bitter; also recorded: better sweetness,”.

With `C=C1C[C@@]23CC[C@H]4[C@@](C)(CCC[C@@]4(C)C(=O)O[C@@H]4O[C@H](CO)[C@@H](O)[C@H](O)[C@H]4O)[C@@H]2CC[C@]1(O[C@@H]1O[C@H](CO)[C@@H](O)[C@H](O[C@@H]2O[C@H](CO)[C@@H](O)[C@H](O)[C@H]2O)[C@H]1O[C@@H]1O[C@H](CO)[C@@H](O)[C@H](O)[C@H]1O)C3` [Reb A, rebaudioside A] as the molecule, how does the “taste properties in words” value [2] read?
The value was “off-taste issues”.

And the “Sensory Comments” value [1]?
Its value is “some sweet, bitter”.

Which results are given for `C=C1C[C@@]23CCC4[C@](C)(C(=O)OC5OC(CO)C(O)C(O)C5OC5OC(CO)C(O)C(O)C5NC(C)=O)CCC[C@@]4(C)[C@@H]2CCC1(OC1OC(CO)C(O)C(OC2OC(CO)C(O)C(O)C2O)C1OC1OC(CO)C(O)C(O)C1O)C3` (stereo partly drawn) [SG204]?
Sensory Comments [1]: bitter, not very sweet; sweetness in water compared with Reb M in water [1]: do not exhibit sweetness similar to Reb M

What does the source list for `C=C1C[C@@]23CCC4[C@](C)(C(=O)OC5OC(CO)C(O)C(OC6OC(CO)C(O)C(O)C6O)C5OC5OC(CO)C(O)C(O)C5O)CCC[C@@]4(C)[C@@H]2CCC1(OC1OC(CO)C(O)C(O)C1O)C3` (stereo partly drawn) [SG201]?
Sensory Comments [1]: not sweet, meaty, brothy,; also recorded: strecker, methional; sweetness in water compared with Reb M in water [1]: do not exhibit sweetness similar to Reb M
